Values joined by “and” are separate entries in the source; they are usually repeats but may differ in a detail not shown here. Equal entries are not always repeated. Where two headings read alike, the source gives them in different places.
Columns and labels:
[1] = biological target: TbPDE2B (Trypanosoma brucei, UniProt Q9GQU6); test: Phosphodiesterase assay, recombinant TbPDE2B expressed in HEK 293 cells; assay type: biochemical; details: for inhibition of recombinant TbPDE2B, in words: 1 μM [3H] cAMP, cGMP up to 200 μM
Experimental: Expression of T. brucei PDE. The ORF sequence for T. brucei PDE was subcloned into the pcDNA 3.1-TOPO vector (Invitrogen) according to the manual (Eukaryotic TOPO TA Cloning, version C) and plasmid DNA purified as described above. Human embryonic kidney 293 (HEK 293) cells were transfected with 12 μg of DNA in 60 μl of GenePORTER Transfection Reagent (Gene Therapy Systems, San Diego, Calif.) in 100-mm dishes and kept at 37° C. in 5% CO2 for 24 h. After this period fresh medium was added, and incubated under the same conditions for an additional 24 h. The same amount of pcDNA vector containing the sequence for the Green Fluorescent Protein (GFP) was transfected under identical conditions as a positive control for expression and as a negative control for PDE activity. Two plates were harvested at a time and homogenized with 1 ml of homogenization buffer containing 40 mM Tris-HCl, pH 7.5; 15 mM benzamidine; 15 mM 2-mercaptoethanol; 1 μg/ml pepstatin A; 1 μg/ml leupeptin and 5 mM EDTA. The cell suspension was immediately subjected to sonication (3×5 s) on ice. One volume of glycerol and 1 mg/ml of bovine serum albumin were added immediately to the homogenate.
Phosphodiesterase assay. […]

[2] = tested on: PDE 3; details: read-out: PDE Selectivity (IC50); cited from earlier work
[3] = tested on: PDE8A; test: RT-PCR of PDE8A upregulation in CD3/CD28-stimulated CD4+ T cells; assay type: cell-based, human; details: after CD3 and CD28 stimulation; FIG. 2C, 2D
Experimental: Peripheral blood mononuclear cells were isolated from one human buffy coat (50 mL) by centrifugation through a layer of Ficoll-Paque Plus (2000 rpm, 30 min). Cells from the interface were removed and further purified by negative selection. CD4^+ T cells were usually isolated using a mixture of monoclonal antibodies (CD8, CD16, CD20, CD25 and HLADr) and goat anti-mouse IgG conjugated to magnetic beads according to the manufacturers protocol (Dynal, Lake Success, N.Y.). In some cases the CD4^+ T cell isolation kit was used in combination with the CD69 microbead kit (to remove activated cells). The labeled cells were removed by passage through a CS column (Miltenyi Biotec, Auburn, Calif.) placed in a magnetic field. The CD4^+ T cells passing through the column (at least 98% pure as determined by FACS analysis) were resuspended in RPMI/10% FBS/pen/strep/glutamine medium. The cells were stimulated as follows. Plates (Corning, Acton, Mass.) were precoated with goat anti-mouse IgG (10 μg/mL) for 2 hours at 37° C. and then washed with PBS. Cells were added to the plate together with CD3 (0.01 μg/mL) and CD28 (0.1 ug/mL) monoclonal antibodies and were harvested at various time points. The presence of PDE8A protein and RNA in activated CD4^+ T cells was detected by Western blotting and RT-PCR (see example 3). […]

[4] = tested on: PDE7A; test: RT-PCR of PDE7A upregulation in CD3/CD28-stimulated CD4+ T cells; assay type: cell-based, human; details: 1 hour after stimulation; FIG. 2C
[5] = biological target: T1, TbPDE2A (Trypanosoma brucei, UniProt Q9GTN9); test: Phosphodiesterase assay, recombinant TbPDE2A in yeast lysates; assay type: biochemical
Experimental: Yeast cell lysis. Yeast cells grown to mid- to end-log phase in SC-leu medium were collected, resuspended quickly in an original volume of prewarmed YPD medium and incubated for an additional 3 h at 30° C. in order to maximize protein expression. Cells were then harvested, washed once in water and once in HBBB buffer (Hank's balanced salt solution, containing 50 mM HEPES, pH 7.5). The washed cell pellet was suspended in an equal volume of HBB containing a protease inhibitor cocktail (Complete™, Roche Molecular Biochemicals). […] The cell lysate was clarified by centrifugation for 15 min at 15,000×g.
Phosphodiesterase Assay. […] […] Incubation was at 30° C. for 20 min. […] The precipitates were filtered through GF-C glass fiber fitters and filters were washed 3 times with ice-cold 1 mM NaOH/100 mM NaCl and were then dried and counted in liquid scintillation fluid (4 g/I omnifluor in toluene). All assays were carried out in triplicates and with three independent enzyme preparations. Controls for the efficiency of precipitation of cAMP and of AMP were always included. When assaying yeast cell extracts, control lysates from the PDE deletion strains transfected with empty vector was used as a background control. […] Inhibitors were dissolved in DMSO or ethanol, and the final concentration of the solvent never exceeded 1% in the assays reaction. Incubation times and enzyme concentrations were always adjusted so that less than 30% of the input substrate was hydrolyzed (2-5 μg total protein/100 μl assay). IC50 values were calculated by curve fitting on a four parameter dose-response model with variable slope, using the Prism software package of Graph Pad Inc., San Diego, Calif.

[6] = biological target: T1, TbPDE2A; details: Table 2, from reference; cited from earlier work
[7] = tested on: TbPDE2C; test: Recombinant TbPDE2C expressed in S. cerevisiae; assay type: biochemical, Trypanosoma brucei
Source text: We also have expressed a second family member, TbPDE2C, as a recombinant protein in the yeast S. cerevisiae and have characterized it was previously done for TbPDE2A.

[8] = tested on: PDE 10; details: read-out: PDE Selectivity (IC50); cited from earlier work
[9] = tested on: PDE 8; details: read-out: PDE Selectivity (IC50); cited from earlier work
[10] = tested on: total PDE activity of trypanosomal cell extracts; test: Total PDE activity in trypanosomal cell extracts; assay type: biochemical, Trypanosoma brucei
Source text: Chemical validation of the TbPDE2 family as a potential drug target. One of the novel PDEs of the invention, TbPDE2A, was expressed as a recombinant protein and was characterized in detail (see above). […].

[11] = tested on: PDE 6; details: read-out: PDE Selectivity (IC50); cited from earlier work
[12] = biological target: T2, human PDE8A (Homo sapiens, UniProt O60658); test: Activity of sf9 expressed PDE8A, undigested or trypsin digested; assay type: biochemical; design: human PDE8A was expressed in Sf9 cells (ATCC, Manassas, Va.); This PDE8A was already N-terminally truncated at position 285; fused on or other part: N-terminal FLAG tag ([…]...) on the undigested construct; details: trypsin digested PDE8A; at 1 μM IBMX
Experimental: (§1) Briefly, human PDE8A was expressed in Sf9 cells (ATCC, Manassas, Va.). […] The supernatant (10^6 cells/digestion) was isolated and digested with the indicated amounts of trypsin at the indicated times at 30° C. The digestion was stopped with a 100-fold excess of soybean trypsin inhibitor. The activity was assayed with 1 μM cAMP. […] The digested PDE8A was analyzed by Western blot analysis using a peptide antibody specific to the C-terminus (PIL13) or the P4G7 monoclonal antibody.
Target sequence in this assay (O60658 whole entry, the tested form may be a part): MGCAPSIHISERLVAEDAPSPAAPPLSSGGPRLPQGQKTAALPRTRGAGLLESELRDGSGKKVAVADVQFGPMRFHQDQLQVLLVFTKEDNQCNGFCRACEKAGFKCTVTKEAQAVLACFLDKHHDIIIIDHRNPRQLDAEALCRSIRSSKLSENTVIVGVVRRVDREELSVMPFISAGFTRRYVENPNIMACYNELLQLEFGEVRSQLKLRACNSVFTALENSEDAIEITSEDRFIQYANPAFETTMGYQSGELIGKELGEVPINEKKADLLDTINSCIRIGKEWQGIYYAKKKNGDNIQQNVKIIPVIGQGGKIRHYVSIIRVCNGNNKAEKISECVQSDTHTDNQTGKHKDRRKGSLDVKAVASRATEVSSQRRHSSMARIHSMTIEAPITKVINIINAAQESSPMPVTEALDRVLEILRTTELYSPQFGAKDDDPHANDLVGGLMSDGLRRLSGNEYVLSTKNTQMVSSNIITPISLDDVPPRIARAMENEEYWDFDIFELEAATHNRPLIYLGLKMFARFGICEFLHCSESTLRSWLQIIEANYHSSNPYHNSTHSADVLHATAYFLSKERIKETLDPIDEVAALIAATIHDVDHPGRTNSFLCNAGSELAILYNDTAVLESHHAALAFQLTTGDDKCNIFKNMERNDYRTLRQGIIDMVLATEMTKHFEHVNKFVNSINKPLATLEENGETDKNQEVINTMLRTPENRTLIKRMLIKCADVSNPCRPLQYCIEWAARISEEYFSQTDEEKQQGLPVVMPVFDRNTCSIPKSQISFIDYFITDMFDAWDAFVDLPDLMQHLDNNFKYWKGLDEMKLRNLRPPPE

[13] = biological target: T2, human PDE8A; test: as above; assay type: biochemical; design: made in house; host or cells: Sf9 insect cells (supernatant of cell extract); details: undigested PDE8A
Experimental: as §1
Target sequence in this assay (O60658 285-829): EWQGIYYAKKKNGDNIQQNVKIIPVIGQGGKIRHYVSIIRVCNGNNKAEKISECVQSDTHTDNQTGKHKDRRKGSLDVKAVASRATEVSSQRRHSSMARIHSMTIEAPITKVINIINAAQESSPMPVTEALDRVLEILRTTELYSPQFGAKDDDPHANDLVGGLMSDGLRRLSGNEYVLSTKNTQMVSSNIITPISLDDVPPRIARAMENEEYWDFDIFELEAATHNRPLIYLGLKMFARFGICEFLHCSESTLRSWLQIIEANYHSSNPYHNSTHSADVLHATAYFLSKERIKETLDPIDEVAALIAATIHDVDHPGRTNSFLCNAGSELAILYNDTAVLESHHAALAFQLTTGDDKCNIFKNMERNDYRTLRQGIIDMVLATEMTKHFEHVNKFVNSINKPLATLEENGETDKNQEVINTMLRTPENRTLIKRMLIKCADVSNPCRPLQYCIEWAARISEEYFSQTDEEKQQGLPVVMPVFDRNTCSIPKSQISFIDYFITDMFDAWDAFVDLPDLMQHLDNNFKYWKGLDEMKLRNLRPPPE

[14] = tested on: PDEs (Non-selective); details: read-out: PDE Selectivity (IC50); cited from earlier work
[15] = tested on: PDE8A; test: Activity of immunoprecipitated PDE8A from Hut78 or CD4+ cells; assay type: biochemical, human
Experimental: Hut78 or CD4^+ cells were harvested at various points after stimulation with CD3 and CD28 antibodies. Cells were resuspended in IP buffer (20 mM Tris pH7.5, 100 mM NaCl, 1 mM benzamidine, 1 μg/mL leupeptin, 1 μg/mL pepstatin, 50 mM NaF, 2 mM EDTA) and sonicated. The cells were centrifuged at 15000×g for 10 minutes. The supernatant was precleared for 2 hours with 0.5 μg mouse IgG and 10 μL protein-G agarose (Santa Cruz Biotechnology, Santa Cruz, Calif.). PDE8A monoclonal antibody was preloaded onto 10 μL protein G-agarose and added to the precleared supernatant. The immunoprecipitations were agitated overnight at 4° C. and the beads washed three times with IP buffer containing 1M NaCl followed by one wash with IP buffer.

[16] = tested on: PDE8A; details: Fisher et al. 1998; cited from earlier work
[17] = tested on: PDE8A; test: PDE activity of monoQ HPLC fractions of hut78 cells containing only PDE8A; assay type: biochemical, human; details: 0.01 μM cAMP
Experimental: (§2) Since pure CD4^+ T cells can only be obtained in limited quantities, a human CD4^+ T cell line, hut78, (ATCC, Manassas, Va.), was used to study the activity of PDE8A. Hut78 cells (2×10^8) were resuspended in 20 mM Tris pH 7.5 buffer containing protease inhibitors (Boehringer Mannheim, Indianapolis, Ind.) and sonicated. The supernatant was removed after centrifugation at 15000×g for 10 minutes and applied to a Mono Q column attached to a Rainin Dynamax HPLC system (Ameryville, Calif.). A NaCl gradient (0-0.8M) was passed through the column and 250 uL fractions were collected. The fractions were assayed for activity using either 1 μM or 0.01 μM cAMP as substrate and the indicated concentration of inhibitor (FIG. 5). Western blot analysis was also performed (10 μL/well) using PDE7A or 8A antibodies.

[18] = tested on: PDE8A and PDE7A from hut78 cells; test: PDE activity of monoQ HPLC fractions of hut78 cells, low Km peak; assay type: biochemical, human; details: 0.01 μM cAMP; 10 μM rolipram or 100 μM IBMX
Experimental: as §2

[19] = full-size TbPDE2A, yeast lysates, 1 μM cAMP

Chain of TbPDE2B (Q9GQU6 entry or part of it): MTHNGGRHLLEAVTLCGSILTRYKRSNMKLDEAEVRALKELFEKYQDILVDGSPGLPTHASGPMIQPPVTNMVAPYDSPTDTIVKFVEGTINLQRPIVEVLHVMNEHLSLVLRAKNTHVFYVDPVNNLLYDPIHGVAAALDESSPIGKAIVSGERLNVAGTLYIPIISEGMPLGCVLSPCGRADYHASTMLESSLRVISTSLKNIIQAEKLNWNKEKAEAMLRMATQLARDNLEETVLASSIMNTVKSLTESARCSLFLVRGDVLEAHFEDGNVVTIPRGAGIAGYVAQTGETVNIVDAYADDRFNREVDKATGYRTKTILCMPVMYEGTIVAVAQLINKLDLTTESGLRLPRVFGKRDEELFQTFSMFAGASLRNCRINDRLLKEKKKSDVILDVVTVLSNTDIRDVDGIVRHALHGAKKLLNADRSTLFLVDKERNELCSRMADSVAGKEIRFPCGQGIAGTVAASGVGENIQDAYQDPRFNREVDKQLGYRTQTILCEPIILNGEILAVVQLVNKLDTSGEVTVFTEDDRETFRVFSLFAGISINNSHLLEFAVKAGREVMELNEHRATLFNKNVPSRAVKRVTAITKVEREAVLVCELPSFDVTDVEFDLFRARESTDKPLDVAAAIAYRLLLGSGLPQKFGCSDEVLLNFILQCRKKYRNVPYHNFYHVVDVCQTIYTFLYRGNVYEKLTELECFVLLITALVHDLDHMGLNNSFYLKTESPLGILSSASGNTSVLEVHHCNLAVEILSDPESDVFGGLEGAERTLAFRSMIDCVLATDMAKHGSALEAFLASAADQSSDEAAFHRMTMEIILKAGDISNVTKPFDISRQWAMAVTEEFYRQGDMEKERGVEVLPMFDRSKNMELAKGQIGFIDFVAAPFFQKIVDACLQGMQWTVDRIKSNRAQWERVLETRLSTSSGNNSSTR
T1 sequence (Q9GTN9 entry or part of it): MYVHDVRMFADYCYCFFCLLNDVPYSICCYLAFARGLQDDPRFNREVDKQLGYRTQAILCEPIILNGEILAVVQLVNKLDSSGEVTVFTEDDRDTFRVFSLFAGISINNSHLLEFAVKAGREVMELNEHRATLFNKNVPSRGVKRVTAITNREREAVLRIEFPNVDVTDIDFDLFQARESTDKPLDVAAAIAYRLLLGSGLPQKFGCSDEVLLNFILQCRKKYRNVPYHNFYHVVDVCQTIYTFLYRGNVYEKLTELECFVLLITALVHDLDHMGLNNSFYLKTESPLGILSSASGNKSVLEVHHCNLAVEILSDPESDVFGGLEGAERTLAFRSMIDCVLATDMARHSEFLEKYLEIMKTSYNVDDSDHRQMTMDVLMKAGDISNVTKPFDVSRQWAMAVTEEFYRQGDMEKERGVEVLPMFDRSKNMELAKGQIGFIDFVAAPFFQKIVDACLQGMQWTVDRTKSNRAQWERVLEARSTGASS

CSc1ccc(C(=O)c2[nH]c(=O)[nH]c2C)cc1 [Enoximone, enoximone]
IC50 [1]: > 100 µM
inhibition of recombinant TbPDE2B, in words [1]: No IC50 could be obtained
IC50 [2]: 1 µM

CC(C)(C)n1nc(-c2ccc(Cl)cc2)c2c(N)ncnc21 [PP2]
PDE8A upregulation [3]: greatly reduced
PDE7A upregulation [4]: reduction of PDE7A upregulation

Nc1nc2c(ncn2[C@@H]2O[C@@H]3COP(=O)(O)O[C@H]3[C@H]2O)c(=O)[nH]1 [cGMP]
cAMP hydrolysis by TbPDE2A in the presence of cGMP ([5]; 100-fold excess of cGMP, full-size and truncated constructs): unaffected
inhibition of recombinant TbPDE2B, in words [1]: not stimulated or inhibited
IC50 ([1]; Substrate concentration 1 μM [3H]-cAMP, read-out: TbPDE2B IC50 (μM) (n = 3)): > 200 µM
IC50 [6]: > 100 µM
effect on activity of TbPDE2C [7]: does not affect the activity

OCCN(CCO)c1nc(N2CCCCC2)c2nc(N(CCO)CCO)nc(N3CCCCC3)c2n1 [Dipyridamole, dipyridamole]
IC50 [5, 19]: 5.8 µM and 5.9 µM
IC50 for TbPDE2A (μM) [5, 19]: low micromolar range
IC50 [1]: 27 µM
IC50 [8]: 1.1 µM
IC50 [9]: 4.5 µM
total PDE activity [10]: marked, if not complete, reduction
IC50 [11]: 0.38 µM

CC(C)Cn1c(=O)n(C)c(=O)c2[nH]cnc21 [IBMX, 3-Isobutyl-1-methylxanthine]
effectiveness on TbPDE2A, in words [5]: not effective
effect on TbPDE2A activity in initial screening ([5]; 100 μM inhibitor, 1 μM cAMP, FIG. 26): ineffective
IC50 [5, 19]: 545 µM
activity retained [12]: 40%
IC50 [1]: > 1000 µM
inhibition of recombinant TbPDE2B, in words [1]: extremely low sensitivity
IBMX inhibition of undigested PDE8A [13]: resistant
activity of undigested PDE8A ([13]; at 1 μM IBMX): unchanged
IC50 [14]: 2 to 50 µM
immunoprecipitated PDE8A activity from hut78 cells ([15]; 100 μM IBMX, FIG. 6A): inhibited
increase in immunoprecipitated PDE8A activity after activation ([15]; CD4+ T cells): could be inhibited
sensitivity of recombinant expressed PDE8A [16]: resistant
activity of fractions that contained only PDE8A [17]: inhibited
sensitivity of the PDE activity peak [18]: sensitive
